The values that follow come from patent US20100204119A1, “4-AMINO-5-OXO-7,8-DIHYDROPYRIMIDO[5,4-F][1,4]OXAZEPIN-6(5H)-YL PHENYL DERIVATIVES” (Pfizer Inc, priority 2009, published 2010).

The target in the experiment is T1, Human full-length diacylglycerol:acylCoA acyltransferase 1 (DGAT-1) (Homo sapiens, UniProt O75907).
T1 sequence (O75907 1-488): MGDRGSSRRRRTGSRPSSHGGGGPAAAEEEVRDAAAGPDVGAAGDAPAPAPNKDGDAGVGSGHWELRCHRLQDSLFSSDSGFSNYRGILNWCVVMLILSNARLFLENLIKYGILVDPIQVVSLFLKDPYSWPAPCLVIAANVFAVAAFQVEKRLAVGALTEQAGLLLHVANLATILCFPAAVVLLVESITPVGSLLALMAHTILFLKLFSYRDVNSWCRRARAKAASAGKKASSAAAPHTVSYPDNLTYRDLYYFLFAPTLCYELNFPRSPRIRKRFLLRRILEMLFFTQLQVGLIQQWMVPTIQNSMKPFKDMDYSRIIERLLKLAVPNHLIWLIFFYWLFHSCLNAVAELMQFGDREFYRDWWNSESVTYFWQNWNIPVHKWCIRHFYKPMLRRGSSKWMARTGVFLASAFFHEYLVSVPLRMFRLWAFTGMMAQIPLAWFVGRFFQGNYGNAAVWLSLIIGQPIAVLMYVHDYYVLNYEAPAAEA
Nature of the experiment: In vitro assay for inhibition of DGAT-1 activity (DGAT 1 Reduced Microsome Multidose Assay). As to conditions: average where n > 1.

[1] abbreviates: Trial 1 Human IC50, Trial 1: as Trial 4 except microsomes at 25 μg/mL instead of 5 μg/mL.
[2] abbreviates: Trial 4 Human IC50, Trial 4: eight concentrations of inhibitor, microsomes 5 μg/mL.
Setting [3] is: Trial 2 Human IC50, Trial 2: as Trial 4 except eleven concentrations of inhibitor instead of eight.
Where [4] appears, read: Trial 3 Human IC50, Trial 3: as Trial 2 except compounds serially diluted in a different laboratory.

Description: Human full-length diacylglycerol:acylCoA acyltransferase 1 (DGAT-1) was expressed in Sf9 insect cells which are then lysed and a crude membrane fraction (105,000×g pellet) was prepared.
Inhibitors in DMSO were pre-incubated with membranes before initiating the DGAT-1 reaction by the addition of decanoylCoA. […] The inhibitors were present at a range of eight concentrations to generate an apparent IC50 for each compound. […] Specifically, the eight concentrations used were 3 μM, 1 μM, 300 nM, 100 nM, 30 nM, 10 nM, 3 nM and 1 nM.
The reactions were allowed to proceed for 1.5 hours at room temperature and then terminated by the addition of 20 μl of EDTA (40 mM). Reaction mixture is then mixed by trituration with 30 μl of Microscint™-E (Perkin Elmer). […] Four separate trials were conducted. The method of analysis of Trial 1 was the same as Trial 4 (described above) except microsomes were utilized at 25 μg/mL instead of 5 μg/mL. The method of analysis of Trial 2 was the same as Trial 4 (described above) except eleven (11) concentrations of inhibitor were employed instead of eight (8). The method of analysis of Trial 3 was the same as Trial 2 except the compounds were serially diluted in a different laboratory.
Where this DGAT-1 inhibition assay was performed on a compound more than once, an average is provided for that compound.

As usually defined, the IC50 is the concentration at which inhibition is half-maximal. In turn, `CO[C@@H]1CCN(C(=O)C[C@H]2CC[C@H](c3ccc(N4CCOc5ncnc(N)c5C4=O)cc3)CC2)C1` [Example 6BA] had an IC50 under setting [1] of 60.1 nM.

The compound `Nc1ncnc2c1C(=O)N(c1ccc([C@H]3CC[C@H](CC(=O)N4CCNC(=O)C4)CC3)cc1)CCO2` [Example 6AX] displayed an IC50 under setting [1] of 123 nM.

In turn, `CCN(C(=O)C[C@H]1CC[C@H](c2ccc(N3CCOc4ncnc(N)c4C3=O)cc2)CC1)[C@H](C)CO` [Example 6Z] had a concentration for half-maximal inhibition (IC50) under setting [1] of 89.6 nM.

In the case of `C[C@@H]1CN(c2ccc(C3(C(N)=O)CCCCC3)cc2)C(=O)c2c(N)ncnc2O1` [Example 1AE, 1-{4-[(8R)-4-amino-8-methyl-5-oxo-7,8-dihydropyrimido[5,4-f][1,4]oxazepin-6(5H)-yl]phenyl}cyclohexanecarboxamide], the concentration for half-maximal inhibition (IC50) under setting [2] turned out to be 82.4 nM.

The compound `CCc1ccc(N2C[C@@H](C)Oc3ncnc(N)c3C2=O)cc1` [Example 1M, (8R)-4-amino-6-(4-ethylphenyl)-8-methyl-7,8-dihydropyrimido[5,4-f]-[1,4]oxazepin-5(6H)-one] registered a 50% inhibitory concentration (IC50) under setting [2] of 13.7 nM.

`Nc1ncnc2c1C(=O)N(c1ccc(C3CCN(C(=O)CC4CCCC4)CC3)cc1)CCO2` [Example 7AE] registered a concentration for half-maximal inhibition (IC50) under setting [3] of 41.2 nM and an IC50 under setting [4] of 92.3 nM.

Turning to `CN(C(=O)C[C@H]1CC[C@H](c2ccc(N3CCOc4ncnc(N)c4C3=O)cc2)CC1)C1CCOCC1` [Example 6H], under setting [1], the IC50 was determined as 53.5 nM.

With `CC1(C)C(=O)NCCN1C(=O)C[C@H]1CC[C@H](c2ccc(N3CCOc4ncnc(N)c4C3=O)cc2)CC1` [Example 6AE], under setting [1], the IC50 turned out to be 75.5 nM.

`CC(C)(C)OC(=O)N1CCC(c2ccc(N3CCOc4ncnc(N)c4C3=O)cc2)CC1` [Example 7B] returned a half-maximal inhibitory concentration (IC50) under setting [3] of 55.1 nM and a half-inhibitory concentration (IC50) under setting [4] of 30 nM.

Regarding `Nc1ncnc2c1C(=O)N(c1ccc(C3CCN(C(=O)CC4CCCOC4)CC3)cc1)CCO2` (stereo not shown) [Example 7E], the concentration for half-maximal inhibition (IC50) is, setting by setting: under setting [3], 196 nM; under setting [4], 300 nM.

As for `COC[C@H]1CCN(C(=O)C[C@H]2CC[C@H](c3ccc(N4CCOc5ncnc(N)c5C4=O)cc3)CC2)C1` [Example 6F], the IC50 under setting [1] was found to be 84.9 nM.

For the compound `Nc1ncnc2c1C(=O)N(c1ccc([C@H]3CC[C@H](CC(=O)N4CCCCC4CCO)CC3)cc1)CCO2` (stereo partly shown) [Example 6AY], half-maximal inhibition under setting [1] (IC50) was put at 85.3 nM.

Compound `COCC1CCN(C(=O)C[C@H]2CC[C@H](c3ccc(N4CCOc5ncnc(N)c5C4=O)cc3)CC2)CC1` [Example 6I] had a half-maximal inhibitory concentration (IC50) under setting [1] of 57.8 nM.

As for `Nc1ncnc2c1C(=O)N(c1ccc([C@H]3CC[C@H](CC(=O)N4CCC(F)(F)CC4)CC3)cc1)CCO2` [Example 6L], the IC50 under setting [1] amounted to 105 nM.

In turn, `COCC(C)(C)c1ccc(N2C[C@@H](C)Oc3ncnc(N)c3C2=O)cc1` [Example 1AA] gave an IC50 under setting [2] of 42.7 nM. This lies in the double-digit nanomolar range.

Consider `CC(C)[C@H](O)C(=O)N1CCC(c2ccc(N3CCOc4ncnc(N)c4C3=O)cc2)CC1` [Example 7U], for which the IC50 turned out to be 205 nM under setting [3] and 297 nM under setting [4].

`C[C@@H]1CN(c2ccc(C(C)(C)C(=O)O)cc2)C(=O)c2c(N)ncnc2O1` [Example 1AO, 2-{4-[(8R)-4-amino-8-methyl-5-oxo-7,8-dihydropyrimido[5,4-f][1,4]oxazepin-6(5H)-yl]phenyl}-2-methylpropanoic acid] gave an IC50 under setting [2] of 20 nM.

Regarding `C[C@@H]1CN(c2ccc(C(C)(C)F)cc2)C(=O)c2c(N)ncnc2O1` [Example 1L, (8R)-4-amino-6-[4-(1-fluoro-1-methylethyl)phenyl]-8-methyl-7,8-dihydropyrimido[5,4-f][1,4]oxazepin-5(6H)-one], under setting [2], half-maximal inhibition (IC50) was put at 46.1 nM.

In the case of `N#CC1CCCN(C(=O)C[C@H]2CC[C@H](c3ccc(N4CCOc5ncnc(N)c5C4=O)cc3)CC2)C1` (stereo partly shown) [Example 6AO], half-maximal inhibition under setting [1] (IC50) was put at 40 nM.

Consider `CC(c1ccncc1)N(C)C(=O)C[C@H]1CC[C@H](c2ccc(N3CCOc4ncnc(N)c4C3=O)cc2)CC1` (stereo partly shown) [Example 6AU], for which half-maximal inhibition under setting [1] (IC50) was put at 75.5 nM.

For the compound `C[C@@H]1CN(c2ccc(C3(C(N)=O)CCCC3)cc2)C(=O)c2c(N)ncnc2O1` [Example 1AF, 1-{4-[(8R)-4-amino-8-methyl-5-oxo-7,8-dihydropyrimido[5,4-f][1,4]oxazepin-6(5H)-yl]phenyl}cyclopentanecarboxamide], the concentration for half-maximal inhibition (IC50) under setting [2] was 117 nM.

Turning to `C[C@@H]1COCCN1C(=O)C[C@H]1CC[C@H](c2ccc(N3CCOc4ncnc(N)c4C3=O)cc2)CC1` [Example 6BD], the IC50 under setting [1] came out at 47.2 nM.

Under setting [2], `C[C@@H]1CN(c2ccc(C3(O)CCCCC3)cc2)C(=O)c2c(N)ncnc2O1` [Example 1AJ] showed an IC50 of 35.6 nM. This lies in the double-digit nanomolar range.

With `C[C@@H]1CN(c2ccc(CC(C)(C)O)cc2)C(=O)c2c(N)ncnc2O1` [Example 1AN], the concentration for half-maximal inhibition (IC50) under setting [2] amounted to 104 nM.

In the case of `CN(CC1CCOCC1)C(=O)C[C@H]1CC[C@H](c2ccc(N3CCOc4ncnc(N)c4C3=O)cc2)CC1` [Example 6D], under setting [1], the midpoint of inhibition, the IC50, lay at 103 nM.

`CC(C)(O)CC[C@H]1CC[C@H](c2ccc(N3CCOc4ncnc(N)c4C3=O)cc2)CC1` [Example 1A-1] yielded an IC50 under setting [1] of 104 nM.

`CCC1(CO)CCN(C(=O)C[C@H]2CC[C@H](c3ccc(N4CCOc5ncnc(N)c5C4=O)cc3)CC2)C1` (stereo partly shown) [Example 6R] showed a concentration for half-maximal inhibition (IC50) under setting [1] of 17.5 nM.

On to `Cc1cc(C(=O)N2CCC(c3ccc(N4CCOc5ncnc(N)c5C4=O)cc3)CC2)no1` [Example 7V], for which the IC50 runs as follows: under setting [3], 113 nM; under setting [4], 224 nM.

As for `C[C@@H]1CN(c2ccc3c(c2)CCC3)C(=O)c2c(N)ncnc2O1` [Example 1S], the half-maximal inhibitory concentration (IC50) under setting [2] is less than 10.7 nM.

Compound `C[C@@H]1CN(c2ccc([C@H]3C[C@@H](O)C3)cc2)C(=O)c2c(N)ncnc2O1` [Example 1Q] displayed a concentration for half-maximal inhibition (IC50) under setting [2] of 76.5 nM.

Consider `COC(C)(C)Cc1ccc(N2C[C@@H](C)Oc3ncnc(N)c3C2=O)cc1` [Example 1AG], for which the IC50 under setting [2] turned out to be 45.2 nM.

With `Nc1ncnc2c1C(=O)N(c1ccc([C@H]3CC[C@H](CCO)CC3)cc1)CCO2` [Example 1E, 4-amino-6-{4-[trans-4-(2-hydroxyethyl)cyclohexyl]phenyl}-7,8-dihydropyrimido[5,4-f][1,4]oxazepin-5(6H)-one], the half-inhibitory concentration (IC50) reads like this: under setting [3], 14.1 nM; under setting [4], 9.75 nM.

The compound `C[C@@H]1CN(c2ccc(C(C)(C)CO)cc2)C(=O)c2c(N)ncnc2O1` [Example 1AQ] yielded a 50% inhibitory concentration (IC50) under setting [2] of 31 nM.

`CC(C)(C(N)=O)c1ccc(N2CCOc3ncnc(N)c3C2=O)cc1` [Example 1D, 2-[4-(4-amino-5-oxo-7,8-dihydropyrimido[5,4-f][1,4]oxazepin-6(5H)-yl)phenyl]-2-methylpropanamide]: half-maximal inhibition under setting [1] (IC50) was put at 2750 nM.

As to `CC(C)(C#N)c1ccc(N2CCOc3ncnc(N)c3C2=O)cc1` [Example 1F, 2-[4-(4-amino-5-oxo-7,8-dihydropyrimido[5,4-f][1,4]oxazepin-6(5H)-yl)phenyl]-2-methylpropanenitrile], the IC50 is, setting by setting: under setting [1], 2120 nM; under setting [3], 1290 nM; under setting [4], 2660 nM.

In turn, `Nc1ncnc2c1C(=O)N(c1ccc(C3CCN(C(=O)CC4CCOCC4)CC3)cc1)CCO2` [Example 7O] came in with a half-inhibitory concentration (IC50) under setting [3] of 138 nM and an IC50 under setting [4] of 374 nM.

`CN(Cc1ccc(F)cc1)C(=O)C[C@H]1CC[C@H](c2ccc(N3CCOc4ncnc(N)c4C3=O)cc2)CC1` [Example 6AK] yielded an IC50 under setting [1] of 18.1 nM. That is a double-digit nanomolar value.

`CN(C)C(=O)CN(C)C(=O)C[C@H]1CC[C@H](c2ccc(N3CCOc4ncnc(N)c4C3=O)cc2)CC1` [Example 6AT] gave a half-inhibitory concentration (IC50) under setting [1] of 161 nM. Compared with the last compound, the IC50 is about 8.9-fold higher.

As for `Nc1ncnc2c1C(=O)N(c1ccc(C3CCN(C(=O)CC4CCOC4)CC3)cc1)CCO2` (stereo not shown) [Example 7M], the IC50 came out at 114 nM under setting [3] and 180 nM under setting [4].
